Experimental data reported in patent US5739117A, “Agent for improving cerebral metabolism including glucose ester derivatives” (Fujimoto Pharmaceutical Co., Ltd., priority 1993, dated 1998).

What was measured:
[1] = Intra-cerebral and blood concentrations of ^18 F-AFDG and its metabolites after intravenous injection; assay type: in vivo; settings: mice
Experimental: Mice were given an intravenous injection of 0.05 ml solution of 0.5 mM ^18 F-AFD in DMSO.

[2] = Kinetic changes in radioactivities in the blood and the cerebral tissue after intravenous injection; assay type: in vivo, mice (ddy strain); settings: mice, i.v. tail vein
Experimental: Normal male mice of the ddy strain at 6 weeks of age were injected intravenously through tail vein with 0.05 ml of […] ^18 F in DMSO solution.
Kinetic changes in radioactivities in the blood and the cerebral tissue of the mice injected with ^18 F-AFDG.

Compound	proportion that reached the cerebral tissue ([1]; i.v., 0.05 ml of 0.5 mM in DMSO, within 0.5 minute following administration)	extent metabolized into ^18 F-FDG-6-phosphate ([1]; i.v., cerebral tissue, at 180 minutes)	time up to which levels of radioactivity in the cerebral tissue increased ([2]; 0.05 ml in DMSO, FIG. 1) [min]	blood radioactivity levels ([2]; 0.05 ml in DMSO, following administration)	radioactivity in the cerebral tissue after administration ([2]; 0.05 ml in DMSO, immediately after administration)	radioactivity in the cerebral tissue compared with blood ([2]; at 10 minutes of administration and thereafter)	time of emergence of intra-cerebral metabolites ([1]; i.v. ^18 F-AFDG, 0.5 mM in DMSO, cerebral tissue) [min]	concentration in the cerebral tissue over time ([1]; i.v. ^18 F-AFDG, after 0.5 minute, FIG. 3)	proportion among ^18 F-AFDG and metabolites in the cerebral tissue ([1]; i.v. ^18 F-AFDG, at 5, 60 and 180 minutes, compared with blood, FIGS. 4 and 5)
CC(=O)OC[C@H]1OC(OC(C)=O)[C@H]([18F])[C@@H](OC(C)=O)[C@@H]1OC(C)=O (stereo partly drawn) [^18 F-AFDG, 1,3,4,6-tetra-O-acetyl-2-^18 F-D-glucose]	approximately 40%	the entire ^18 F-AFDG was found to be metabolized into ^18 F-FDG-6-phosphate	30	decreased consistently following administration	could be detected in the cerebral tissue immediately after administration	higher in the cerebral tissue than in the blood			
O=P(O)(O)OC[C@H]1OC(O)[C@H]([18F])[C@@H](O)[C@@H]1O (stereo partly drawn) [^18 F-FDG-6-phosphate]							≤ 0.5	raised markedly	highest proportion in the cerebral tissue
